Source: patent publication US5750700A, “Certain 1-substituted aminomethyl imidazole and pyrrole derivatives: novel dopamine receptor subtype specific ligands” (Neurogen Corporation, priority 1995, dated 1998)
Where a name gives a salt, the structure may show the parent alone.

How the values were obtained:
[1] = target: T1, human dopamine D4 receptor subtype (Homo sapiens, UniProt P21917); assay: D4 receptor binding activity: displacement of [3H] YM-09151-2; details: 0.1 nM [3H] YM-09151-2; 60 minutes at 25° C.; clonal cell lines expressing human D4
T1 construct: expressed in transfected cells
T1 sequence (P21917 1-419): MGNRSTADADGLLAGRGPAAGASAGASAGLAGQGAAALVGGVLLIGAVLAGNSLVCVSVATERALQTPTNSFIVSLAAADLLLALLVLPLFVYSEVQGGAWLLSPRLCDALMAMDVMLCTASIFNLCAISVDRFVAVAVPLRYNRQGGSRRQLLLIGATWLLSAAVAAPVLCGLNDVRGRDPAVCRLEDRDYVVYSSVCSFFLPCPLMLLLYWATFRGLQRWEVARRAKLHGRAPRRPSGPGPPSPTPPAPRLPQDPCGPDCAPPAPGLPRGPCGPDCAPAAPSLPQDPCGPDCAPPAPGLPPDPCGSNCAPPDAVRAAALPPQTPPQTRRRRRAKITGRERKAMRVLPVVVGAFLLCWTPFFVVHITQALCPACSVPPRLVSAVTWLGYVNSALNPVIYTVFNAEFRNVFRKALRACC
Description: Assay for D4 Receptor Binding Activity
Clonal cell lines expressing the human dopamine D4 receptor subtype were harvested in PBS and the cells centrifuged and the pellets stored at -80° C. until used in the binding assay. The pellets were resuspended and the cells lysed at 4° C. in 50 mM Tris pH 7.4 buffer containing 120 mM NaCl, 2 mM EDTA and 5 mM mMgCl2. The homogenate is centrifuged at 48000×g for 10 minutes at 4° C. The resulting pellet is resuspended in fresh buffer and centrifuged again. After resuspension of the pellet in fresh buffer at 100 ul aliquot removed for the protein determination. The remaining homogenate is centrifuged as above, the supernatant removed and the pellet stored at 4° C. until needed at which time it is resuspended to a final concentration of 625 ug/ml (250 ug per sample) with 50 mM Tris buffer (pH 7.4) and 120 mM NaCl just prior to use. Incubations were carried out for 60 minutes at 25° C. in the presence of 0.1 nM [^3 H] YM-09151-2. The incubation was terminated by rapid filtration through Whatman GF/C filters and rinsed with 2×4 ml washes of chilled 50 mM Tris (pH 7.4) and 120 mM NaCl. Nonspecific binding was determined with 1 uM spiperone and radioactivity determined by counting in an LKB beta counter. Binding parameters were determined by non-linear least squares regression analysis, from which the inhibition constant Ki could be calculated for each test compound. The binding characteristics of some examples of this patent are shown in Table 2 for the dopamine D4 binding assay. […] YM-09151-2 from the human dopamine D4 receptor subtype of below […].

[2] = target: D2 and D3 receptor (rat striatal homogenates); assay: D2 and D3 receptor binding activity: displacement of 3H-raclopride in rat striatal homogenates; design: species or system adult male Sprague Dawley rats; details: 0.5 nM 3H-raclopride, nonspecific binding 10^-4M dopamine
Description: Assay for D2 and D3 Receptor Binding Activity Striatial tissue is dissected from adult male Sprague Dawley rats or BHK 293 cells are harvested containing recombinantly produced D2 or D3 receptors. The sample is homogenized in 100 volumes (w/vol) of 0.05M Tris HCl buffer at 4° C. and pH 7.4. The sample is then centrifuged at 30,000×g and resuspended and rehomogenized. The sample is then centrifuged as described and the final tissue sample is frozen until use. The tissue is resuspended 1:20 (wt/vol) in 0.05M Tris HCl buffer containing 100 mM NaCl. […] The binding characteristics of examples of this patent are shown in Table 1 for Rat Striatal Homogenates.

SMILES | Ki [1] | IC50 [2]
Fc1ccc(N2CCN(Cc3cn(-c4ccccc4)cn3)CC2)cc1 [Compound 6, 1-Phenyl-4[(4-(4-fluorophenyl)-piperazin-1-yl)methyl]imidazole dihydrochloride] | 3 nM | 194 nM
c1ccc(N2CCN(Cc3cn(-c4ccccc4)cn3)CC2)cc1 [Compound 3, 1-Phenyl-4[(4-phenyl-piperazin-1-yl)methyl]imidazole dihydrochloride] | 2 nM | 6 nM
c1ccc(C2CCN(Cc3cn(-c4ccccc4)cn3)CC2)cc1 [Compound 2, 1-Phenyl-4[(4-phenyl-piperidin-1-yl)methyl]imidazole dihydrochloride] | 10 nM | 3 nM
c1ccc(CC2CCN(Cc3cn(-c4ccccc4)cn3)CC2)cc1 [Compound 1, 1-phenyl-4[(4-benzyl-piperidin-1-yl)-methyl]imidazole] | 3 nM | 142 nM
